The values that follow come from US7294638B2, “Treatment of ADHD” (H. Lundbeck A/S, priority 2001, dated 2007).

One experiment concerns the target T1, dopamine D4 receptors (Homo sapiens, UniProt P21917).
T1 sequence (P21917 1-419): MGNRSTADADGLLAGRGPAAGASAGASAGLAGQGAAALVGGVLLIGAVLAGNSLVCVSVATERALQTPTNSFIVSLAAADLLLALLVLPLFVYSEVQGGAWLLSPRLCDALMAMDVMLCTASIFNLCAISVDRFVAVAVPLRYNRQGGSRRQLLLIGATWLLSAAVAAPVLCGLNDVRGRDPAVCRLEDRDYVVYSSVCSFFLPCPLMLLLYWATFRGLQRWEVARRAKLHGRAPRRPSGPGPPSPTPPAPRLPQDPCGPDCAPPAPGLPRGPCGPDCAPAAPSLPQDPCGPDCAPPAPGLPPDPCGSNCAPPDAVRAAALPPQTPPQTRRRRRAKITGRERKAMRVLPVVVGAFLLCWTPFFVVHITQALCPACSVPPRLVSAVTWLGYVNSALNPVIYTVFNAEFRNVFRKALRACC
Particulars: data in WO 98/28293; cited from earlier work.

The subject of experiment [1] is DAT knock-out (KO) mice. Particulars: Gainetdinov et al. Science 1999; cited from earlier work.
The test system of experiment [2] is DAT knock-out (KO) mice. Nature of the experiment: DAT-KO mice model of ADHD (hyperactivity). Format: in vivo. As to conditions: animal model of ADHD. The source says: A very useful animal model of ADHD is the DAT knock-out (KO) mice (Gainetdinov et al. Science 1999, 283, 397-401).
The compound, (S)-(+)-3-[1-[2-(1-acetyl-2,3-dihydro-1H-indol-3-yl)ethyl]-1,2,3,6-tetrahydropyridin-4-yl]-6-chloro-1H-indole, has been tested in the DAT-KO mice, an animal model which have many behaviour patterns and responses to psychostimulants in common with individuals with ADHD (Gainetdinov et al. Science 1999, 283, 397-401).

For experiment [3] the following is noted: clinical; Barrickman et al. 1991; cited from earlier work.

With `CC(=O)N1CC(CCN2CC=C(c3c[nH]c4cc(Cl)ccc34)CC2)c2ccccc21` (racemic) [3-[1-[2-(1-acetyl-2,3-dihydro-1H-indol-3-yl)ethyl]-1,2,3,6-tetrahydropyridin-4-yl]-6-chloro-1H-indole], the “dopamine D4 ligand potency” value on dopamine D4 receptors is given as “potent dopamine D4 ligand”. Regarding `N[C@@H](Cc1c[nH]c2ccc(O)cc12)C(=O)O` [5-hydroxytryptophan], in the experiment on DAT knock-out (KO) mice [1], the “reversal of hyperactivity in DAT-KO mice” value was “counteract the hyperactivity”. Take `CC(=O)N1C[C@@H](CCN2CC=C(c3c[nH]c4cc(Cl)ccc34)CC2)c2ccccc21` [(S)-(+)-3-[1-[2-(1-acetyl-2,3-dihydro-1H-indol-3-yl)ethyl]-1,2,3,6-tetrahydropyridin-4-yl]-6-chloro-1H-indole]: the “effect in the DAT-KO mice model” value with DAT knock-out (KO) mice [2] is given as “have effect in this model”.

Consider `N[C@@H](Cc1c[nH]c2ccccc12)C(=O)O` [L-tryptophan], for which the “reversal of hyperactivity in DAT-KO mice” value in the experiment on DAT knock-out (KO) mice [1] is listed as “counteract the hyperactivity”. For the molecule `CC(N)Cc1ccccc1` (stereo not drawn) [amphetamine], the “reversal of hyperactivity in DAT-KO mice” value with DAT knock-out (KO) mice [1] is on record as “can be reversed”. With `CNCCC(Oc1ccc(C(F)(F)F)cc1)c1ccccc1` (stereo not drawn) [fluoxetine], in experiment [3], the “reducing symptoms of ADHD” value was “effective in reducing symptoms of ADHD”. Besides, in the experiment on DAT knock-out (KO) mice [1], the “reversal of hyperactivity in DAT-KO mice” value is “counteract the hyperactivity”.

For the molecule `COC(=O)C(c1ccccc1)C1CCCCN1` (stereo not drawn) [methylphenidate], in the experiment with DAT knock-out (KO) mice [1], the “reversal of hyperactivity in DAT-KO mice” value is listed as “can be reversed”. For `c1ccc2nc(N3CCNCC3)ccc2c1` [quipazine], in the experiment with DAT knock-out (KO) mice [1], the “reversal of hyperactivity in DAT-KO mice” value is on record as “counteract the hyperactivity”.
